Measured values taken from article PMC7377376, “Drug targeting CYP2E1 for the treatment of early-stage alcoholic steatohepatitis” (PLoS ONE, 2020).
Like-named read-outs stand apart in the source and are kept apart here.

Tests used:
[1] = target: T1, human cytochrome P450 2E1 (Homo sapiens, UniProt P05181); assay: Steady-state p-nitrophenol oxidation, CYP2E1 inhibition in SUPERSOMES; format: biochemical
T1 construct: purchased BD Biosciences
Description: Initial velocities of the oxidation of p-nitrophenol (p-NP) to p-nitrocatechol by human cytochrome P450 2E1 were determined by measuring the absorption at 535 nm or 546 nm to determine product formation as described before.
Alternatively, 100 mM HEPES pH 7.6 was additionally used for the enzyme kinetic measurements. A final concentration of either 50 nM enzyme in form of SUPERSOMES™ from BD Biosciences or microsomes in case of cell culture experiments was added. Reaction was initiated by adding 500 μM (enzyme kinetic measurements) or 0.1 mM (cell culture experiments) NADPH after preincubation at 37° C and stopped by adding 20% trichloroacetic acid (TCA) after 30 minutes to ensure linearity of product formation. The protein concentration for the microsomal fraction was determined by Bradford assay to calculate the results expressed as units of specific activity defined as the amount of enzyme that consumes 1 μmol/L of NADPH per hour per microgram of protein. Inhibitor stock solutions were prepared in 0.1% DMSO and diluted to a final DMSO concentration of 0.003% in the reaction mixture at most to avoid enzyme inhibition by this solvent. Inhibitory constants (Ki) were calculated by non-linear fitting of initial velocities. Maximum inhibition could not be achieved since final inhibitor concentrations were limited by DMSO.
Supplementary file pone.0235990.s002.tif: S2 Fig CYP2E1 inhibition by data base inhibitors. To ascertain whether an imidazole containing compound is already commercially available and better suited for development as a drug can-didate, we performed a large virtual library screening of the ZINK database. We found 14,738 hits. The 5,261 commercially available compounds could be classified as 4,710 synthetic and 551 natural molecules. After docking and final scoring process, the seven best synthetic and the three best natural candidates were purchased and tested in vitro for their potential to inhibit CYP2E1 activity. Different concentrations of these compounds dissolved in DMSO were added to 110 μM p-Nitrophenol in 100 mM HEPES buffer pH 7.6 and SUPERSOMES™ with 50 nM human CYP 2E1 to calculate relative activity values. […] 20 μM corresponds to a DMSO volume of 0.02% (v/v). (TIF) Click here for additional data file.

CYP2E1 [2] = settings: cited from earlier work
cholesterol synthesis = test system: cholesterol synthesis; parameters: method as in printed; settings: high concentrations (> or =1.0 mmol/L); ref not given; cited from earlier work
CYP2E1 [3] = settings: cited from earlier work; remark: listed apart in the source
ethanol-fed Wistar rats [4] = assay: Oxidative stress parameters in liver of ethanol-fed rats (Lieber-DeCarli diet); format: in vivo; settings: rat liver
Description: (§1) A total of 68 female Wistar rats (Institute of Pharmacology and Biochemistry Breeding House, Minsk, Belarus) aged 80–90 days and weighting 180–200 g at the beginning of the experiments were used in the study. Each rat group (n = 6–8) was housed in a separate cage and had free access to the liquid diet during the full study period. Prior to the study, the animals were habituated for seven days to the cage conditions and experimental handling. The rats were maintained in a controlled experimental environment (20–25°C, 40–50% humidity, 12 h light per day, room with a 12-h light/dark cycle).
(§2) Rats were divided into ten groups characterized by the diet and the test compounds (S1 Table). Group 1 is the first control group in which a normal solid standard diet was fed for 12 weeks. All other groups received the liquid Lieber-DeCarli (LDC) diet (S2 Table), which combines food and drink in a liquid manner. It was prepared by ssniff Spezialdiäten GmbH, Soest. The addition of maltodextrin to this diet should compensate the pure caloric effect of ethanol, whereby 1.77 g maltodextrin replaces 1 g ethanol. The calorie value of both the control and ethanol diets was the same: 35% calories from fat, 11% from carbohydrates, 18% from protein and 36% from ethanol.
(§3) In the first two weeks rats of all groups–with the exception of group 1 –were fed with LDC diet plus maltodextrin in an appropriate amount to adapt the animals to the liquid diet. Group 2 is the second control group in which the isocaloric diet was administered for further 10 weeks until the end of the experiment. […] The test compounds I-ol, I-an and UDCA were dissolved in a 0.8% aqueous HPMC gel to obtain the appropriate concentrations: (1) I-ol with 0.4, 4 and 40 mg/kg b. w. (2) I-an with 0.4, 4 and 40 mg/kg b. w. (3) UDCA with 40 mg/kg b. w. Rats of group 2 and 3 received only HPMC as a placebo. The LDC diets were fed ad libitum and their intake per cage was controlled daily. The corresponding bottles were stored in the cages from 08:00 a. m. until 06:00 p. m. and replaced by drinking water bottles overnight until 08:00 a. m. in the next morning. Every day at the same time, the test compounds or only HPMC were administered intragastrically by oral gavage with an administration volume of 2 ml/kg b. w. After ten weeks of treatment, the rats were anesthetized with an intraperitoneal injection of a 5% pentobarbital solution and then killed by aorta scarification. Their livers were dissected and liver pieces frozen and stored in liquid nitrogen. A part of the liver was fixed for histological investigations. Blood was collected before sacrifice, centrifuged for serum preparation and finally stored in liquid nitrogen.
The generation of reactive oxygen species (ROS) in rat liver was evaluated by NADPH-induced chemiluminescence with amplification by both luminol for the detection of superoxide (SRA) radical anion and lucigenin detecting hydrogen peroxide as described by Müller-Peddinhaus. In short, liver pieces were homogenized in 0.1 M sodium phosphate buffer pH 7.4. The homogenates were centrifuged at 9,000 x g at 0°C and aliquots were used for the measurement. Reduced glutathione (GSH) was determined by a modified Ellman`s method: 0.2 ml of the liver homogenates’ supernatant were added to 1.6 ml of an EDTA-/sodium […] solution. The absorbance was read at […] against blanks. GSH solution—prepared immediately before use—served as a standard. End products of the lipid peroxidation reaction are equivalent to TBARS (thiobarbituric acid-reacting substances) and their concentration was measured according to Buege et al.. The enzymatic activity of cytosolic glutathione peroxidase (GPx) and microsomal glutathione reductase (GR) were determined as described by Buko at al.. Catalase activity was evaluated by spectrophotometric measurement using hydrogen peroxide as a substrate according to Beers et al.. […]

ethanol-fed Wistar rats [5] = assay: Liver and serum lipid parameters of ethanol-fed rats; format: in vivo, rat
Description: as §1, §2, §3
(§4) The serum marker enzyme activities, alanine aminotransferase (ALT), aspartate aminotransferase (AST), alkaline phosphatase (AP) and gamma-glutamyltransferase (γ-GT) as well as triglycerides and bilirubin were measured according to manufacturer’s instructions using standard commercial kits from Lachema (PLIVA-Lachema Diagnostika, Czech Republic). Serum concentrations of leptin, adiponectin and TNF-alpha were analyzed using commercial ELISA test kits: BioCat GmbH (Heidelberg, German) for adiponectin and TNF-alpha, BioVendor Laboratory Medicine Inc. (Brno, Czech Republic) for leptin. Insulin serum concentration was determined by radioimmunoassay using the commercially available kit RIO-insulin-PG-J125 (IBOCH, Minsk, Belarus). Glucose serum concentration was determined by the Accu-Check Active blood glucose testing system from Roche-Diagnostics GmbH (Mannheim, Germany).
Lipids were extracted with a chloroform: methanol mixture (2:1 v/v). Neutral lipids and phospholipids were separated into classes by thin-layer chromatography (TLC). Lipid fractions (triglycerides, cholesterol and its fractions) were measured in extracts from scraped spots by routine methods using the appropriate commercial kits. […]

ethanol-fed Wistar rats [6] = assay: Serum liver enzyme activities of ethanol-fed rats; format: in vivo, rat
Description: as §1, §2, §3, §4

ethanol-fed Wistar rats [7] = assay: Liver histopathology of ethanol-fed rats; format: in vivo, rat; settings: I-ol, I-an in their higher concentrations; UDCA 40 mg/kg b.w.; H.E. staining
Description: as §3
Liver samples were selected randomly, fixed in Bouin`s solution and embedded in paraffin wax. Histological sections were prepared and stained with haematoxylin and eosin. Other liver samples were fixed in a solution containing formaldehyde, paraformaldehyde and glutaraldehyde with a subsequent post-fixation in 1% osmium containing phosphate buffer pH 7.4 for further analysis. Liver tissue was embedded in a mixture of butyl-methyl-metacrylates. Semifine sections of 0.5–1.0 μm were stained with Asur II, methylen blue and basic fuxine.

[8] = cited from earlier work
[9] = literature survey, ref not given
[10] = average over 0.4/4/40 mg/kg b.w. (UDCA 40 mg/kg), oral, 10 weeks
[11] = average over doses (UDCA 40 mg/kg)
[12] = liver, average over doses (UDCA 40 mg/kg)
[13] = serum, average over doses (UDCA 40 mg/kg)

T1 sequence (P05181 whole entry): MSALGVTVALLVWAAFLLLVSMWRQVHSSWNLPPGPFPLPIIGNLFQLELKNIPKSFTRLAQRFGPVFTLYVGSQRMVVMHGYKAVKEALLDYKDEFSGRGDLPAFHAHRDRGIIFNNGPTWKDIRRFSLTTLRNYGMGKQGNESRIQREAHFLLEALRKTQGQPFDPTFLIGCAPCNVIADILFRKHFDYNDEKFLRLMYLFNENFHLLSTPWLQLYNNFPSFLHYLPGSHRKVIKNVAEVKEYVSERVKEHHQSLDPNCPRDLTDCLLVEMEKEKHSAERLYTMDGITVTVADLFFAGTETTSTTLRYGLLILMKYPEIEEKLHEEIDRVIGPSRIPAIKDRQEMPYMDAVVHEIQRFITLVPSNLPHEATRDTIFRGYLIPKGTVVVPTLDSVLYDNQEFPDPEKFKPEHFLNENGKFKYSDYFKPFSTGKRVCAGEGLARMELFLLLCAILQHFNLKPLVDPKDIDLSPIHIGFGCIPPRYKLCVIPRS

C[N+](C)(C)CCOP(=O)([O-])OCCCCCCCCCCCCn1ccnc1 [I-phosphocholine, 12-Imidazolyl-dodecan-1-yl-phosphocholine]
Ki ([1]; human CYP2E1 SUPERSOMES, p-nitrophenol oxidation, competitive model with offset): 22 µM

OCCCCCCCCCn1ccnc1 [I-nonanol, 9-imidazolyl-1-nonanol]
inhibitory effect on CYP2E1 (in words) ([1]; human CYP2E1 SUPERSOMES): almost identical

C[S+](CC[C@H](N)C(=O)[O-])C[C@H]1O[C@@H](n2cnc3c(N)ncnc32)[C@H](O)[C@@H]1O (stereo partly drawn) [S-adenosyl-L-methionine (SAM), S-adenosyl-L-methionine]
effect on CYP2E1 activity (in words) (CYP2E1 [2]; [9]): CYP2E1 activity (SAM is a non-competitive inhibitor), reactive oxygen species, anti-fibrogenic action, clinical trial

OCCCCCCCn1ccnc1 [I-heptanol, 7-imidazolyl-1-heptanol]
inhibitory effect on CYP2E1 (in words) ([1]; human CYP2E1 SUPERSOMES): dramatic decrease in inhibitory performance

C[S+]([O-])CCCCN=C=S (stereo not shown) [Sulforaphane]
effect on CYP2E1 activity (in words) (CYP2E1 [2]; [9]): Sulforaphane does not inhibit CYP2E1 in the knockin mouse modell.

C=CCSSCC=C [Diallyl disulfide (DADS), Diallyl disulfide]
cholesterol synthesis (in words) (cholesterol synthesis): abolished

OCCCCCCCCCCn1ccnc1 [I-decanol, 10-imidazolyl-1-decanol]
inhibitory effect on CYP2E1 (in words) ([1]; human CYP2E1 SUPERSOMES): almost identical

O=C(O)CCCCCn1ccnc1 [ω-imidazolylhexanoic acid]
spin shift (CYP2E1 [3]): missing spin shift

C[S+](C)[O-] [DMSO]
IC50 ([1]; solvent inhibition of CYP2E1): 0.065 % (v/v)

C[C@H](CCC(=O)O)[C@H]1CC[C@H]2[C@@H]3[C@@H](O)C[C@@H]4C[C@H](O)CC[C@]4(C)[C@H]3CC[C@]12C [UDCA, ursodeoxycholic acid, reference compound]
reduction of ethanol effect on hydrogen peroxide (ethanol-fed Wistar rats [4]; I-ol, I-an 0.4/4/40 mg/kg b.w., UDCA 40 mg/kg, oral, 10 weeks): 46%
GPx activity decrease compared to disease group (ethanol-fed Wistar rats [4]; UDCA 40 mg/kg b.w.): 21%
reduction of ethanol effect on TBARS (ethanol-fed Wistar rats [4]; average over 0.4/4/40 mg/kg b.w. (UDCA 40 mg/kg)): no statistic significant reduction
reduction of ethanol effect on superoxide radical anion (SRA) (ethanol-fed Wistar rats [4]; average over 0.4/4/40 mg/kg b.w. (UDCA 40 mg/kg), daily oral gavage, 10 weeks): no statistic significant reduction
hydrogen peroxide decrease compared to disease group (ethanol-fed Wistar rats [4]; [10]): 32%
reduction of ethanol effect on reduced glutathione (GSH) (ethanol-fed Wistar rats [4]; [10]): no statistically significant changes
reduction of ethanol effect on glutathione reductase (GR) activity (ethanol-fed Wistar rats [4]; [11]): no statistically significant result
GPx activity below the reference value in healthy animals (ethanol-fed Wistar rats [4]; highest concentration (UDCA 40 mg/kg b.w.)): 28%
liver cholesterol decrease compared to disease group (ethanol-fed Wistar rats [5]; liver, UDCA 40 mg/kg): 11%
reduction of ethanol effect on hepatic cholesterol (ethanol-fed Wistar rats [5]; liver, UDCA 40 mg/kg): 78%
reduction of ethanol effect on hepatic triglycerides (ethanol-fed Wistar rats [5]; liver, average over 0.4/4/40 mg/kg b.w. (UDCA 40 mg/kg), oral, 10 weeks): 55%
liver phospholipids decrease compared to disease group (ethanol-fed Wistar rats [5]; [12]): 20%
liver triglycerides decrease compared to disease group (ethanol-fed Wistar rats [5]; [12]): 31%
reduction of ethanol effect on hepatic phospholipids (ethanol-fed Wistar rats [5]; [12]): completely eliminated
reduction of ethanol effect on serum LDL cholesterol (ethanol-fed Wistar rats [5]; serum, UDCA 40 mg/kg): no significant effect
reduction of ethanol effect on serum VLDL (ethanol-fed Wistar rats [5]; serum, UDCA 40 mg/kg): no statistically significant reduction
reduction of ethanol effect on serum triglycerides (ethanol-fed Wistar rats [5]; [13]): 79%
serum triglycerides decrease compared to disease group (ethanol-fed Wistar rats [5]; [13]): 39%
reduction of ethanol effect on γ-GT activity (ethanol-fed Wistar rats [6]; UDCA 40 mg/kg): 61%
ALT activity decrease compared to disease group (ethanol-fed Wistar rats [6]; [11]): 33%
AP activity decrease compared to disease group (ethanol-fed Wistar rats [6]; [11]): 20%
AST activity decrease compared to disease group (ethanol-fed Wistar rats [6]; [11]): 19%
reduction of ethanol effect on AST activity (ethanol-fed Wistar rats [6]; [11]): 83%
γ-GT activity decrease compared to disease group (ethanol-fed Wistar rats [6]; [11]): 33%
reduction of ethanol effect on alkaline phosphatase (AP) activity (ethanol-fed Wistar rats [6]; on average (UDCA 40 mg/kg)): 66%
liver morphology (histopathology, in words) (ethanol-fed Wistar rats [7]): reduce the histopathological effects of ethanol in a comparable way
long-term high-dose safety finding ([8]; 28–30 mg/kg/day, patients with ulcerative colitis and PSC): increased risk of colorectal neoplasia
mortality at maximum follow-up versus no intervention group ([8]; network meta-analysis, alcoholic liver disease): higher

O=C(O)CCCCCCCCCCCn1ccnc1 [12 (imidazolyl) dodecanoic acids, 12-(imidazolyl)-dodecanoic acid]
affinity to CYP2E1 compared to other ω imidazolyl alkanoic acids (in words) (CYP2E1 [3]; ref Porubsky, Battaile et al. 2010): highest affinity

Silymarin
effect on CYP2E1 activity (in words) (CYP2E1 [2]): Has no influence on CYP2E1 activity. Clinical trails with patients having alcoholic liver cirrhosis showed controversial results.

C[N+](C)(C)CC(=O)O [Betaine]
effect on CYP2E1 activity (in words) (CYP2E1 [2]; [9]): Betaine reduces CYP2E1 activity only to a minor extend, while attenuating ASH. People with high cholesterol should use betaine anhydrous cautiously.
